From patent US20240382557A1, “INHIBITION OF TUMOR NECROSIS FACTOR, PRO-INFLAMMATORY CYTOKINES AND OTHER INFLAMMATORY RESPONSE MEDIATORS” (Allegro Pharmaceuticals, LLC, priority 2021, published 2024)
Where a SMILES comes first, the peptide text is derived from it. [ ]: non-standard residue; d: D form. Cya = N[C@@H](CS(=O)(=O)O)C(=O)O

What was measured:
[1] = Intravenous infusion to dogs, toxicity; assay type: in vivo; settings: 1.0 mg/kg, 5.0 mg/kg and 8.0 mg/kg
Method: The peptides disclosed herein may be administered at any effective dosages, as a single dose or multiple doses, and by any suitable routes of administration. For some systemic treatments, administration by injection or intravenous infusion may be preferable. […] Accordingly, in at least some applications, risuteganib may be administered, for example, by intravenous infusion at a dosage ranging from 1 mg/kg to 8 mg/kg. Other dosage levels and other routes of administration may also be suitable and effective.

[2] = test system: Human umbilical vein endothelial cells (HUVEC); assay: RNA-seq gene expression in HUVEC treated with hypoxia and cytokines; assay type: cell-based
Source text: Purpose: A chronic pro-inflammatory condition is associated with many ocular diseases, including DED, AMD, and DR. During this process, tissue resident and peripheral immune cells are activated and contribute to formation of a cytotoxic inflammatory state that causes tissue damage and vision loss. In this study, RNA-seq was used to unbiasedly identify the genes regulated by risuteganib treatment in human endothelial cells exposed to hypoxia and cytokines. Analysis of the specific subset of genes regulated by risuteganib enables identification of biological processes and pathways modulated by the oligopeptide.
Methods: Human umbilical vein endothelial cells (HUVEC) were used between passage 3 to 5. All cells were grown at 3% O2 to stimulate endothelial cells into a more angiogenic state. Cells were divided into four treatment groups: control, cytokines for 48 hours, 500 uM risuteganib for 24 hours, and cytokines for 48 hours with 500 uM risuteganib for 24 hours. Cytokine treatment contains both human TNF-a and IL-1b at 1 ng/ml at final concentration. After exposure, cells were collected and their total RNA isolated for RNA-seq. The generated reads were then aligned to human reference genome/transcriptome and gene expression quantified for differential expression analysis and fold change calculation. The list of regulated genes was then used to identify biological processes and pathways that are regulated after risuteganib exposure with cytokine exposure.

[3] = 3% O2, 500 uM risuteganib for 24 hours

C[C@@H](O)[C@H](NC(=O)[C@H](CS(=O)(=O)O)NC(=O)CNC(=O)[C@H](CCCNC(=N)N)NC(=O)CN)C(=O)N1CCC[C@H]1C(=O)O [Risuteganib, Glycyl-L-arginylglycyl-3-sulfo-L-alanyl-L-threonyl-L-proline] (H-GRG[Cya]TP-OH)
toxicity or side effects [1]: without significant toxicity or side effects
CCL2 Mean Expression Rate (Normalized as Fraction Control) [2, 3]: 0.8696
CCL20 Mean Expression Rate (Normalized as Fraction Control) [2, 3]: 0.6328
CFH Mean Expression Rate (Normalized as Fraction Control) [2, 3]: 0.9706
CXCL5 Mean Expression Rate (Normalized as Fraction Control) [2, 3]: 1.166
CXCL6 Mean Expression Rate (Normalized as Fraction Control) [2, 3]: 0.9699
IL6 Mean Expression Rate (Normalized as Fraction Control) [2, 3]: 0.9982
IL7R Mean Expression Rate (Normalized as Fraction Control) [2, 3]: 1.036
SELE Mean Expression Rate (Normalized as Fraction Control) [2, 3]: 0.7022
TNFAIP3 Mean Expression Rate (Normalized as Fraction Control) [2, 3]: 0.946
TNFAIP6 Mean Expression Rate (Normalized as Fraction Control) [2, 3]: 0
TNFRSF11B Mean Expression Rate (Normalized as Fraction Control) [2, 3]: 0.8931
genes regulated by both risuteganib and cytokines that are regulated in opposite directions ([2]; 342/403 genes): 85%
reversing the transcriptome changes associated with cytokine treatment (Pearson's r) ([2]; cytokine-activated condition): −0.267
number of pathways down-regulated by risuteganib (pathway analysis) ([2]; incl. cytokine-cytokine receptor interaction, TNF signaling, IL-17 signaling): 10
